Test system: GFP-encoding measles virus
Assay: Measles virus replication, infected cells counted with PerkinElmer Ensight system (Part II)
Settings: 75 μg/mL, quadruplets
Description: Vero-Slam cells were incubated with decreasing concentration of the solubilized test compounds. All concentrations were analyzed on three independent six-well plates or by independent six replicates on a black 96well plate (PerkinElmer). Cells were infected with GFP-encoding wild-type measles virus and incubated for two days. […] Part II: Two days after infection measles virus-infected cells and GFP expressing cells were directly counted using the PerkinElmer Ensight system with optical cell culture plates. The instrument was controlled by manual counting. Viral titers were calculated as infectious particles per mL.
However, in contrast to the previous experiments, infected cells were counted with the PerkinElmer Ensight system, since this system allows to quantify changes in viral titers on single cell level.
However, only non-toxic compound concentrations were applied.
The cells were subsequently infected with GFP-encoding measles virus, and GFP expressing cells were quantified with the Perkin Elmer Ensight reader. All infections were performed in triplicate assays.

Compound: C[C@@H]1O[C@@H](OC[C@H]2O[C@@H](Oc3cc4c(O)cc(O)cc4[o+]c3-c3cc(O)c(O)c(O)c3)[C@H](O)[C@@H](O)[C@@H]2O)[C@H](O)[C@H](O)[C@H]1O [D3R, delphinidin 3-rutinoside]
- number of infected cells: reduced the number of infected cells

Reference: patent publication US12076357B2, “Preparations containing berry extracts for use in the prophylaxis and/or treatment of viral infections caused by Paramyxoviridae” (Evonik Operations GmbH, priority 2019, dated 2024)
